Results on one compound are retold here after ChEMBL document CHEMBL1147221, “Illudin S, the sole antiviral compound in mature fruiting bodies of Omphalotus illudens” (J Nat Prod, 2003).

The structures appear in SMILES notation. Calls of active or inactive are those of the source. The calls are words filed in the database; no cut-off is given here.

For data set [1], the system named is Human alphaherpesvirus 1. Nature of the data set: Antiviral activity against HSV1 infected in african green monkey CV1 cells at 0.010 ug/disk by filter disk method. The format is functional, organism-based. The note with it: CV-1.
The nature of data set [2]: Cytotoxicity against african green monkey CV1 cells at 10 ug/disk by neutral red staining. The format is cell-based. The note with it: chlorocebus aethiops, cv-1.
Data set [3] deals with Human alphaherpesvirus 1. The data set can be described thus: Antiviral activity against HSV1 infected in african green monkey CV1 cells at 0.005 ug/disk by filter disk method. The format is functional, organism-based. The note with it: CV-1.
The nature of data set [4]: Cytotoxicity against african green monkey CV1 cells at 0.5 ug/disk by neutral red staining. The format is cell-based. The note with it: chlorocebus aethiops, cv-1.
Data set [5] is described as follows: Cytotoxicity against african green monkey CV1 cells at 1 ug/disk by neutral red staining. The settings on record: chlorocebus aethiops, cv-1. The format is cell-based.
Data set [6] relates to Human alphaherpesvirus 1. Nature of the data set: Antiviral activity against HSV1 infected in african green monkey CV1 cells at 0.5 ug/disk by filter disk method. The format is functional, organism-based. The note with it: CV-1.
The nature of data set [7]: Cytotoxicity against african green monkey CV1 cells at 0.25 ug/disk by neutral red staining. The note with it: chlorocebus aethiops, cv-1. The data set is classed as cell-based.
Data set [8] can be described thus: Cytotoxicity against african green monkey CV1 cells at 0.1 ug/disk by neutral red staining. The settings on record: chlorocebus aethiops, cv-1. The format is cell-based.
Data set [9] in a line: Cytotoxicity against african green monkey CV1 cells at 0.005 ug/disk by neutral red staining. The data set is classed as cell-based. The settings on record: chlorocebus aethiops, cv-1.
A short description of data set [10]: Cytotoxicity against african green monkey CV1 cells at 0.025 ug/disk by neutral red staining. The format is cell-based. The settings on record: chlorocebus aethiops, cv-1.
Data set [11] deals with Human alphaherpesvirus 1. Nature of the data set: Antiviral activity against HSV1 infected in african green monkey CV1 cells at 0.15 ug/disk by filter disk method. The format is functional, organism-based. The note with it: CV-1.
Data set [12] concerns Human alphaherpesvirus 1. Nature of the data set: Antiviral activity against HSV1 infected in african green monkey CV1 cells at 10 ug/disk by filter disk method. The settings on record: CV-1. The data set is classed as functional, organism-based.
Data set [13] is described as follows: Cytotoxicity against african green monkey CV1 cells at 0.15 ug/disk by neutral red staining. The data set is classed as cell-based. The settings on record: chlorocebus aethiops, cv-1.
In data set [14] the test system is Human alphaherpesvirus 1. The data set can be described thus: Antiviral activity against HSV1 infected in african green monkey CV1 cells at 0.1 ug/disk by filter disk method. The note with it: CV-1. The data set is classed as functional, organism-based.
The subject of data set [15] is Human alphaherpesvirus 1. Nature of the data set: Antiviral activity against HSV1 infected in african green monkey CV1 cells at 1 ug/disk by filter disk method. The note with it: CV-1. The format is functional, organism-based.
Data set [16] in a line: Cytotoxicity against african green monkey CV1 cells at 5 ug/disk by neutral red staining. The data set is classed as cell-based. The settings on record: chlorocebus aethiops, cv-1.
Data set [17] can be described thus: Cytotoxicity against african green monkey CV1 cells at 0.010 ug/disk by neutral red staining. The data set is classed as cell-based. The settings on record: chlorocebus aethiops, cv-1.
Data set [18] can be described thus: Cytotoxicity against african green monkey CV1 cells at 2.5 ug/disk by neutral red staining. The format is cell-based. The note with it: chlorocebus aethiops, cv-1.
Data set [19] concerns Human alphaherpesvirus 1. Nature of the data set: Antiviral activity against HSV1 infected in african green monkey CV1 cells at 0.05 ug/disk by filter disk method. The data set is classed as functional, organism-based. The note with it: CV-1.
The subject of data set [20] is Human alphaherpesvirus 1. Nature of the data set: Antiviral activity against HSV1 infected in african green monkey CV1 cells at 2.5 ug/disk by filter disk method. The note with it: CV-1. The format is functional, organism-based.
Data set [21] concerns Human alphaherpesvirus 1. Nature of the data set: Antiviral activity against HSV1 infected in african green monkey CV1 cells at 0.25 ug/disk by filter disk method. The data set is classed as functional, organism-based. The settings on record: CV-1.
Data set [22] in a line: Cytotoxicity against african green monkey CV1 cells at 0.05 ug/disk by neutral red staining. The data set is classed as cell-based. The note with it: chlorocebus aethiops, cv-1.
Data set [23] relates to Human alphaherpesvirus 1. The data set can be described thus: Antiviral activity against HSV1 infected in african green monkey CV1 cells at 5 ug/disk by filter disk method. The format is functional, organism-based. The settings on record: CV-1.
Data set [24] can be described thus: Cytotoxicity against african green monkey CV1 cells at 0.015 ug/disk by neutral red staining. The data set is classed as cell-based. The note with it: chlorocebus aethiops, cv-1.

In the case of `CC1=C2C(=C[C@@](C)(CO)[C@@H]2O)C(=O)[C@](C)(O)C12CC2` [ILLUDIN], the outcome in the data set on Human alphaherpesvirus 1 [1], with Human alphaherpesvirus 1 [3], in the data set on Human alphaherpesvirus 1 [6], with Human alphaherpesvirus 1 [12], in the data set on Human alphaherpesvirus 1 [15] and with Human alphaherpesvirus 1 [20] was inactive. Further, the outcome in the data set on Human alphaherpesvirus 1 [21] and with Human alphaherpesvirus 1 [23] was inactive. For the same compound, the Activity entry is reported as “Toxic” in data set [2]; “Toxic” in [4]; “Toxic” in data set [5]; “Toxic” in data set [7]; “Non-toxic” in data set [8]; “Non-toxic” in data set [9]. The Activity result in data set [10] is “Non-toxic”; in data set [13], “Non-toxic”; in [16] it was “Toxic”; in data set [17], “Non-toxic”; in data set [18], “Toxic”; in data set [22] it was “Non-toxic”. Besides, in data set [24], the Activity result was “Non-toxic”. In addition, the outcome in the data set on Human alphaherpesvirus 1 [11], with Human alphaherpesvirus 1 [14] and in the data set with Human alphaherpesvirus 1 [19] was Active.
